# Entries after “also recorded” stand apart in the source; their conditions may differ.
# Tested on: MDA-MB-231 cells
# Test: MDA-MB-231 proliferation culture, cell counts with cisplatin and/or EMF exposure
# Type: cell-based, human
# Conditions: for reduction of cell number (cell count): cisplatin 20 μM, positive control, no EMF exposure, 5 days culture
# Method: MDA-MB-231 cells, a human triple-negative breast cancer cell line, were obtained at passage 40 (Sigma: 92020424). The culture media used was high glucose DMEM (Gibco: 31053-028) supplemented with 1% GlutaMAX™ (Gibco: 35050-061) and 10% fetal bovine serum (Gibco).
# Cells were thawed from frozen (−150° C.), placed in a tube with warm media and spun down for 5 minutes at 240×g. After pelleting the cells, the media was removed, and the cells resuspended and seeded into a T225 flask with 45 mL of media. Cells were placed in an incubator set to 37° C. and 5.0% CO2. Media was exchanged every 2-3 days. Cells proliferated until they reached 80-90% confluency. Upon reaching this threshold. cells were passaged. Cells were washed with DPBS and detached using TrypLE Express (Gibco). The detached cells were neutralized, centrifuged, and seeded in culture vessels at a density of 10,000 cells/cm^2.
# For experimental harvests cells were detached as when passaging and neutralized with media. A 100 μL aliquot was taken and used for cell counts. Cells were counted on a NC-200 Nucleocounter (ChemoMetec). The remaining dissociated cells were centrifuged for 2 minutes at 4000 RPM. Following centrifugation, the supernatant was aspirated, and the cell pellets were immediately frozen at −80° C. for future RNA extraction.
# Cisplatin is a platinum-based chemotherapy drug that inhibits DNA synthesis. Cisplatin is used in the treatment of many cancers, including breast cancer. Cisplatin (Millipore-Sigma: 232120) was dissolved in DPBS with 140 mM NaCl at a concentration of 1 mg/mL and stored at room temperature, protected from light. The solution was further diluted in culture media to obtain the desired concentration for experiments. DPBS with 140 mM NaCl was used as a vehicle control. Cisplatin at 20 μM was used as a positive control as this concentration reduced the cell number by more than 90%. Lower concentrations of 2 μM and 0.667 μM (one tenth and one thirtieth the concentration of the positive control, respectively) were used in combination with PEMF stimulation.
# Cells were exposed, as previously described for mesenchymal stem cells, to a spatially uniform, time-varying magnetic field using Helmholtz coils. A description of the exposure system (coils, signal generator, incubators, etc.) is described in Example One.
# Table 3 contains the parameters describing four different fields covering a wide range of shapes, intensities and frequencies. The two sinusoids are simple sine waves with no offset. The pulse waveform has a 10% duty cycle, creating sudden, large changes in the field's magnetic flux density (B). Finally, Experiment 4 consists of pairs of triangular waves with increasing separation equivalent to a decreasing frequency from 36 Hz to 10 Hz. The waveform consists of 15 pairs and has a period of approximately 900 ms. Positive results with Experiments 3 and 4 (described below) ledto repeating the exposures with the addition of a chemotherapy drug cisplatin). Additionally, Experiments 3 and 4 were also performed with “healthy” chondrocytes.
# Chemotherapy drugs, including cisplatin, are a commonplace and proven method of treating cancer tumours despite a plethora of side effects. Large doses of these drugs can be a significant monetary and health concern for many patients so any method of reducing the dosage with an adjunct therapy is welcome. To test the combined effect of cisplatin and EMF exposure, two low concentrations (2 μM and 0.667 μM) of cisplatin were added to the culture media of MDA-MB-231 cells subjected to Experiment 3 and 4 exposures. Additionally, cells were cultured with 20 μM of cisplatin and no exposure as a “positive” control. […] The exposed cell groups are plotted relative to the unstimulated vehicle sample and when cultured with the vehicle show the same decrease in cell count as in Figure H (without vehicle). […]
smiles,measurement,setting,value
"N.N.[Cl][Pt][Cl] [cisplatin, Cisplatin]",effect on cell growth of adding EMF exposure to cisplatin,"cisplatin 2 μM and 0.667 μM plus EMF exposure Experiment 3 or 4, statistically significant vs cisplatin alone",further inhibited
same,effect on proliferation / cell count,"cisplatin 20 μM (high concentration), no EMF stimulation",drastic impact on the cell count; also recorded: inhibitory
same,reduction of cell number (cell count),,90%
same,reduction of cell number (cell count),listed as Cisplatin,more than 90%
same,reduction of cell counts by combined treatment (cisplatin + EMF exposure),"cisplatin at 10% of positive control concentration (2 μM) with EMF exposure (Experiment 3 or 4), relative to negative control, 5 days",more than 80%
same,effect on normalized cell count,"low concentrations of cisplatin (2 μM and 0.667 μM), relative to unstimulated vehicle",significantly lowered cell counts
